Data set [1] can be described thus: Cytotoxicity against African green monkey Vero E6 cells incubated for 24 hrs by CCK8 assay. Type of data set: toxicity, cell-based, Vero C1008. Particulars: chlorocebus sabaeus.
For data set [2], the target named is Replicase polyprotein 1ab (Severe acute respiratory syndrome coronavirus 2) (UniProt P0DTD1). Particulars: dose 31.25-1000 nM, time 100.0 sec.
The target is the same in data set [3]. The settings on record: dose 31.25-1000 nM, time 100.0 sec. The source holds these as a separate data set.
Data set [4] addresses T1, Calpain-1 catalytic subunit (Homo sapiens, UniProt P07384).
T1 sequence (P07384 whole entry): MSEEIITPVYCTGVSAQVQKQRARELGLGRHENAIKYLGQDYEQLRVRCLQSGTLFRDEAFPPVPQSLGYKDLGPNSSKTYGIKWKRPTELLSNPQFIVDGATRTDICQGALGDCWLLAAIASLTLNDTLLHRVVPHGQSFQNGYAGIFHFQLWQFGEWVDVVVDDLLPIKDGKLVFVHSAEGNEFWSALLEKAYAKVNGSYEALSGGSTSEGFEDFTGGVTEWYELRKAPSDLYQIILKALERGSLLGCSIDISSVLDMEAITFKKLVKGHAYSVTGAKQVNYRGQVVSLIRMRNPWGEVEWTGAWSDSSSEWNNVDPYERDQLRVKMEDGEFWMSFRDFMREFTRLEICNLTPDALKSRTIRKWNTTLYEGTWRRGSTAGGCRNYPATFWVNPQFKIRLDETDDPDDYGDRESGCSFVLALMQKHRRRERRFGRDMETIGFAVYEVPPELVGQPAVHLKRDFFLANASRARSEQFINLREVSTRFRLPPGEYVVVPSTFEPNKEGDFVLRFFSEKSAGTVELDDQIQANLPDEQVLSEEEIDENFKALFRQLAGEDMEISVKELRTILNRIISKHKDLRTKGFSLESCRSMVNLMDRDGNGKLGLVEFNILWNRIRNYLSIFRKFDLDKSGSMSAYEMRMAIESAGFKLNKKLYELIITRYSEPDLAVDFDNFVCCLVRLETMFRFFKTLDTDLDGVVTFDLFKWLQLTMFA
Description: Inhibition of human Calpain 1 using N-Suc-Leu-Leu-Val-Tyr-7-AMC as substrate incubated for 10 mins by FRET-enzymatic assay.

Another data set has as its target Cathepsin B (Homo sapiens, UniProt P07858). As to the kind of experiment: Inhibition of human Cathepsin B using CBZ-Arg-Arg-AMC as substrate incubated for 10 mins by FRET-enzymatic assay.
A further data set deals with Cathepsin D (Homo sapiens, UniProt P07339). As to the kind of experiment: Inhibition of human Cathepsin D using MCA-PLGL-Dap(Dnp)-AR-NH2 as substrate incubated for 10 mins by FRET-enzymatic assay.
Sequence of Cathepsin D (P07339 65-162 limits assumed): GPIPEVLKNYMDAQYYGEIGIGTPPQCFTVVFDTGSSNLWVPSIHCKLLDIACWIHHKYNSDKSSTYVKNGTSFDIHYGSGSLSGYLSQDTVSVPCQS
Sequence of Cathepsin D (P07339 169-412 limits assumed): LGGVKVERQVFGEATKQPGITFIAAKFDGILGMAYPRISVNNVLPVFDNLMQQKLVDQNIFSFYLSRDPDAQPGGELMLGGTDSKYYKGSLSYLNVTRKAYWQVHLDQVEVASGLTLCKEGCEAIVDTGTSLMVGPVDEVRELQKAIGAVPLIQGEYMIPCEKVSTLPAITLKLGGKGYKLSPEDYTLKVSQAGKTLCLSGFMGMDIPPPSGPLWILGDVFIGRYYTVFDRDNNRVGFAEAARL
A further data set addresses T2, Cathepsin K (Homo sapiens, UniProt P43235).
T2 sequence (P43235 whole entry): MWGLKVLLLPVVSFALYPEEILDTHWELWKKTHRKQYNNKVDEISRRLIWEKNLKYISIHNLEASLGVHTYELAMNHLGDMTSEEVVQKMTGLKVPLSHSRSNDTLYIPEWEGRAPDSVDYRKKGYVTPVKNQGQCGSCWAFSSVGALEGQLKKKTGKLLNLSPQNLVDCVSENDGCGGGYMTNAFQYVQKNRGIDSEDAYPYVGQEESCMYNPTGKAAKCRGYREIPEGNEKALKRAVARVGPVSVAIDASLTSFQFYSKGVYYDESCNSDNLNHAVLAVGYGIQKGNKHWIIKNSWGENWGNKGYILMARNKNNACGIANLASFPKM
As to the kind of experiment: Inhibition of human Cathepsin K using Z-Phe-Arg-AMC as substrate incubated for 10 mins by FRET-enzymatic assay.

The next data set deals with Procathepsin L (Homo sapiens, UniProt P07711). Description: Inhibition of human Cathepsin L using Z-Phe-Arg-AMC as substrate incubated for 10 mins by FRET-enzymatic assay.
Sequence of Procathepsin L (P07711 whole entry): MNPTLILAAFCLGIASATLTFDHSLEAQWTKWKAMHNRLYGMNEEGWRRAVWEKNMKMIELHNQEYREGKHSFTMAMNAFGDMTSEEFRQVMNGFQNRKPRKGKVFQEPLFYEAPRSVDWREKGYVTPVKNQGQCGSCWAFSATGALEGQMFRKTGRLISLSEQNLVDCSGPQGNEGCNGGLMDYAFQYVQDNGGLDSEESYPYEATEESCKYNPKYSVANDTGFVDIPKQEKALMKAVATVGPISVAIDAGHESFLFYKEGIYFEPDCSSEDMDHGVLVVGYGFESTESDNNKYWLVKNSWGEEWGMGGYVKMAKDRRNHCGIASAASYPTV
The target of another data set is Trypsin (Homo sapiens, UniProt P07477+P07478+P35030). As to the kind of experiment: Inhibition of human trypsin using CBZ-Arg-Arg-AMC as substrate incubated for 10 mins by FRET-enzymatic assay. Type of data set: protein assay.
In a further data set the target is Prothrombin (Homo sapiens, UniProt P00734). As to the kind of experiment: Inhibition of human thrombin using benzoyl-FVR-AMC as substrate incubated for 10 mins by FRET-enzymatic assay.
The subject of the next data set is Proteasome. Type of data set: subcellular, Homo sapiens.
The target in the next data set is Dipeptidyl peptidase 4 (Homo sapiens, UniProt P27487). As to the kind of experiment: Inhibition of human DPP-4 using Gly-Pro-AMC as substrate incubated for 10 mins by FRET-enzymatic assay.
Sequence of Dipeptidyl peptidase 4 (P27487 whole entry): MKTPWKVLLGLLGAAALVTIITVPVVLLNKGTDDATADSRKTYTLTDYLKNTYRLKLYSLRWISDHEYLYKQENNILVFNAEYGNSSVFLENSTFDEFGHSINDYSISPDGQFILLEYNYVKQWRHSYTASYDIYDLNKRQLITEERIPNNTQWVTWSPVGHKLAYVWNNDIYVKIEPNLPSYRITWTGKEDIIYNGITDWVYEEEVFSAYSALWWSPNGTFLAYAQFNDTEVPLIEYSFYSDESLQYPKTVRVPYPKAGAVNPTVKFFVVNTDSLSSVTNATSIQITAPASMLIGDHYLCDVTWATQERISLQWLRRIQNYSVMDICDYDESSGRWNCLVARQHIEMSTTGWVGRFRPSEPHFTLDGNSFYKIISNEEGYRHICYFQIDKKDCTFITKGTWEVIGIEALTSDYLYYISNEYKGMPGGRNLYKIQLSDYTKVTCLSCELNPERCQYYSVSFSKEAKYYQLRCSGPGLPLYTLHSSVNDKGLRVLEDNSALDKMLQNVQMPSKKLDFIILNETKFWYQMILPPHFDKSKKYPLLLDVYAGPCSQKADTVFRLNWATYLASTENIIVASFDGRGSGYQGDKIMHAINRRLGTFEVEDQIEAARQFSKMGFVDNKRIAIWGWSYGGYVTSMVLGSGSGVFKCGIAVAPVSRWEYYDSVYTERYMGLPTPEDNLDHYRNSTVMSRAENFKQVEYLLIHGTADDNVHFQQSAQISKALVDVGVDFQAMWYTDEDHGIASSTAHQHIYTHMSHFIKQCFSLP
Another data set has as its target T3, Caspase-3 (Homo sapiens, UniProt P42574).
T3 sequence (P42574 whole entry): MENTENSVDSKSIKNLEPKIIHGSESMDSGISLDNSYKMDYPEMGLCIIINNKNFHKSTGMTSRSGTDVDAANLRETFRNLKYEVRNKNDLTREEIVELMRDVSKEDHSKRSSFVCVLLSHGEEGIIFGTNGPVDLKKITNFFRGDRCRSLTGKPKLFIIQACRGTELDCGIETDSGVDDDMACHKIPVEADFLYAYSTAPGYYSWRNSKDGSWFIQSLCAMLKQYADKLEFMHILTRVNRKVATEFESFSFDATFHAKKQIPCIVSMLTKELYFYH
Description: Inhibition of human Caspase-3 activity using Ac-DEVD-pNA as substrate incubated for 5 mins by FRET-enzymatic assay.

A short description of data set [5]: Inhibition of Bat coronavirus WIV-1 3CLpro by FRET-enzymatic assay.
The nature of data set [6]: Inhibition of MERS-CoV 3CLpro by FRET-enzymatic assay. Further details: species or system Middle East respiratory syndrome-related coronavirus.
Data set [7] in a line: Inhibition of HCov-OC43 3CLpro by FRET-enzymatic assay. Set-up: species or system Human coronavirus OC43.
In data set [8] the target is Replicase polyprotein 1ab (Human coronavirus 229E, UniProt P0C6X1). Description: Inhibition of HCov-229E 3CLpro by FRET-enzymatic assay.
Sequence of Replicase polyprotein 1ab (Human coronavirus 229E, UniProt P0C6X1) (P0C6X1 2966-3267 limits assumed): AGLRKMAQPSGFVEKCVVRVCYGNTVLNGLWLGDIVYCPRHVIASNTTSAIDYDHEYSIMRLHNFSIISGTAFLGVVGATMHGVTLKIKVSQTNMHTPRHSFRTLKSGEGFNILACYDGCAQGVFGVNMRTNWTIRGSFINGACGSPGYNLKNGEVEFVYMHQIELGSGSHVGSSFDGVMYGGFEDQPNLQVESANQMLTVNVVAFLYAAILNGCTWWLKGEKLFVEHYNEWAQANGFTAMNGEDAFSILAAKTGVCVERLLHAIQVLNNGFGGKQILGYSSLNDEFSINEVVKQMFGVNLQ
A short description of data set [9]: Inhibition of Bat coronavirus HKU9 3CLpro by FRET-enzymatic assay. Further details: species or system Rousettus bat coronavirus HKU9.
Data set [10] can be described thus: Inhibition of porcine delta coronavirus 3CLpro by FRET-enzymatic assay. Further details: species or system Porcine deltacoronavirus.
For the next data set, the target named is 3C-like protease (Infectious bronchitis virus, UniProt Q3Y5H1). As to the kind of experiment: Inhibition of Infectious bronchitis virus 3CLpro by FRET-enzymatic assay.
Sequence of 3C-like protease (Q3Y5H1 whole entry): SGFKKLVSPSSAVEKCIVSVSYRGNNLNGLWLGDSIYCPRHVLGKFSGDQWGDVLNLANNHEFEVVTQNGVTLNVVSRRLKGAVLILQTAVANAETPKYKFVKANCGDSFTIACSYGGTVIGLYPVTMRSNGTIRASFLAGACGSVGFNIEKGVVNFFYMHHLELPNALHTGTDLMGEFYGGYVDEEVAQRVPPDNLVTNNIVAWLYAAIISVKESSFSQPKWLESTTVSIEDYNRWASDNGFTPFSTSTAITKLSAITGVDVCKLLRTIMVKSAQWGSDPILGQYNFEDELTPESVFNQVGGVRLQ
A short description of data set [11]: Inhibition of mouse hepatitis virus 3CLpro by FRET-enzymatic assay. Further details: species or system Murine hepatitis virus.
A short description of data set [12]: Tmax in ICR mouse at 20 mg/kg, po. The format is ADME, organism-based. The settings on record: in vivo.
The nature of data set [13]: Half-life in ICR mouse at 20 mg/kg, po. Type of data set: ADME, organism-based. Particulars: in vivo.
Data set [14] is described as follows: Cmax in ICR mouse at 20 mg/kg, po. Type of data set: ADME, organism-based. The settings on record: in vivo.
The nature of data set [15]: AUC (0 to infinity) in ICR mouse at 20 mg/kg, po. The format is ADME, organism-based. The settings on record: in vivo.
Data set [16] can be described thus: AUClast in ICR mouse at 20 mg/kg, po. Particulars: in vivo. The format is ADME, organism-based.
Data set [17] is described as follows: Observed MRT (0 to infinity) in ICR mouse at 20 mg/kg, po. Type of data set: ADME, organism-based. Particulars: in vivo.
Data set [18] is described as follows: Acute toxicity in mouse at 500 mg/kg, po administered twice a day for 5 days. Particulars: in vivo, 120 h, time 5 day. The format is organism-based.
Data set [19] is described as follows: Acute toxicity in mouse assessed as animal death at 500 mg/kg, po administered twice a day for 5 days. The format is organism-based. Particulars: in vivo, 120 h, time 5 day.
Data set [20] can be described thus: Acute toxicity in mouse assessed as body weight change at 500 mg/kg, po administered twice a day for 5 days. The format is organism-based. The settings on record: in vivo, 120 h, time 5 day.
For data set [21], the target named is T4, Replicase polyprotein 1ab (Severe acute respiratory syndrome coronavirus 2, UniProt P0DTD1).
Data set [22] concerns the target T4, Replicase polyprotein 1ab. This is another data set of the same source.
Data set [23] addresses T4, Replicase polyprotein 1ab. This is another data set of the same source.

These results are taken from ChEMBL document CHEMBL5523769, “Discovery of Novel Nonpeptidic and Noncovalent Small Molecule 3CLpro Inhibitors as anti-SARS-CoV-2 Drug Candidate” (J Med Chem, 2024).

pIC50, pKd: −log10 of the molar value.

As a reminder, the CC50 is the concentration that lowers cell viability or growth by half. A word on the pIC50: it is the negative decadic logarithm of the IC50, by convention in mol/L. As a reminder, the IC50 is the concentration that inhibits the measured activity by half. As usually defined, the Tmax is the time from dosing to the highest level. By half-life is commonly meant how long it takes for the measured level to halve. Usually Cmax stands for the highest concentration seen after dosing. Broadly, the AUC(0-inf) is total exposure, with the tail of the curve extrapolated. The AUC(0-t) is exposure summed from dosing to a finite time, without extrapolation to infinity. Broadly, the MRT inf is the average time that molecules of a dose stay in the body. As a reminder, the pKd is −log10 of the Kd, conventionally taken in molar units. `CN1CCN(C(=O)c2cc(Br)cc([N+](=O)[O-])c2N[C@@H]2CCCC[C@@H]2NC(=O)c2cc(=O)[nH]c3c(F)cccc23)CC1`: the CC50 at 24 h in data set [1] was more than 200 µM. In addition, the results for the K in [2] and in data set [3] were 3.8 10^5/M/s and 0.007 s⁻¹, respectively. Also, the pIC50 (in data set [4]; against Cathepsin B; against Cathepsin D; against Cathepsin K; against Procathepsin L; on Prothrombin) was less than 4.00 in each case. For the same molecule, the pIC50 in the data set on Proteasome is less than 4.00; against Dipeptidyl peptidase 4, less than 4.00; on Caspase-3, less than 4.00; in data set [5], 7.07; in [6], 5.77; in data set [7], 6.03. The pIC50 in data set [8] was 5.59; in data set [9], 6.40; in [10], less than 5.00; at 3C-like protease, less than 5.00; in [11], less than 5.00; in data set [21], 7.68. Further, the IC50 against Trypsin is more than 100 µM. In addition, in [12], the Tmax amounted to 3 min. For the same molecule, the half-life in data set [13] is 1.21 h. In addition, in [14], the highest level (Cmax) was 76.3 ng/mL. In data set [15], this molecule returned an AUC(0-inf) of 77.7 ng·h/mL. This molecule also showed an AUC(0-t) in data set [16] of 70.6 ng·h/mL. In data set [17], the mean residence time (MRT inf) came to 1.44 h. The Activity result in data set [18], in data set [19] and in [20] was “Non-Toxic” in each case. The pKd in [22] was 7.74.

In data set [1], `O=C(c1cc(=O)[nH]c2ccccc12)N1CCN(c2ccc(Cl)c(Cl)c2)CC1CN1CCOCC1` (configuration not stated) came in with a CC50 at 24 h of 381 µM. Moreover, the K in data set [3] was determined as 0.028 s⁻¹. Also, the negative logarithm of the IC50 (pIC50) in data set [23] and in [21] was 6.82 in each case. For the same molecule, the pKd in [22] is 6.93.
